Source: publication PMC10458698, “Characterization of the interferences of systemic azole antifungal drugs with adrenal steroid biosynthesis using H295R cells and enzyme activity assays” (Current Research in Toxicology, 2023)
Where “and” joins values, the source holds several entries; their conditions need not be identical. Equal entries are not always repeated.

Legend:
CYP11B1 = system: CYP11B1; parameters: method as in Beck et al., 2020a; conditions: ref Beck et al., 2020a; cited from earlier work
11β-HSD2 = system: 11β-HSD2; parameters: method as in Beck et al., 2017, Beck et al., 2020a; conditions: ref Beck et al., 2017, Beck et al., 2020a; cited from earlier work
CYP21A2 = biological target: T1, CYP21A2 (Homo sapiens, UniProt P08686); assay: CYP21A2 activity assay, microsomes of transfected COS-1 cells; type: biochemical; conditions: cell-free; for IC50: progesterone 500 nM, 10 min
T1 construct: host or cells: COS-1 cells, transient transfection, microsomal fraction
T1 sequence (P08686 1-495): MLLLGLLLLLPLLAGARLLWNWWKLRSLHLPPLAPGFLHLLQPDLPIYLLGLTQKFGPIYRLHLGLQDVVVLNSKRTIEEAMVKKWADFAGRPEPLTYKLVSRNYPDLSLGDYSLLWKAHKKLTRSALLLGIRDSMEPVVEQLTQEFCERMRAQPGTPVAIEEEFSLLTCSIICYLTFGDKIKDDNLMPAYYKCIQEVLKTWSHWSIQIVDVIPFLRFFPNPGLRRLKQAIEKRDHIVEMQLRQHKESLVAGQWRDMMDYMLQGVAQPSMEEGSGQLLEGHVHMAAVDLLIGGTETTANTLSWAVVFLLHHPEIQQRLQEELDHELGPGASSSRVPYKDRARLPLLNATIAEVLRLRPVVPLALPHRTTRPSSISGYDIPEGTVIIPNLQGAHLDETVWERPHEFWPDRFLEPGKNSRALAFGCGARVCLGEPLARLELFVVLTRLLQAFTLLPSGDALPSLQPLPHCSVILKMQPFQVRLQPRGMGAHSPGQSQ
Procedure: (§1) Microsomes were prepared from COS-1 cells transiently transfected with plasmids for either CYP17A1 and POR for CYP17A1-hydroxylase assay (human CYP17A1 was available in our own plasmid collection after cloning into pcDNA3, POR was ordered from Genescript, Piscataway, USA, clone ID OHu25584C), CYP17A1, POR and cytochrome b5 for CYP17A1 17,20-lyase assay (cytochrome b5 was from Genescript, clone ID OHu09495D), POR and CYP21A2 (Genescript, CYP21A2 clone ID OHu18602D), or 3β-HSD2 (Genescript, clone ID OHu14034D). Transfection was performed using PEI and equal amounts of required plasmids with a total DNA amount of 8 µg per transfection of 3,000,000 cells. After overnight incubation, cells were washed with prewarmed PBS before adding ice-cold PBS. Cells were collected and centrifuged at 600 × g for 4 min at 4 °C, washed with ice cold PBS and centrifuged again. The pellet was resuspended in a resuspension buffer (20 mM Tris, pH 7.5, 50 mM KCl, 2 mM MgCl2, 0.25 M sucrose). Cells were disrupted with 30 S by a glass potter (2 cm^3) as described above. The homogenate was centrifuged for 20 min at 12,000 × g and 4 °C. Microsomes were pelleted by ultracentrifugation at 100,000 × g for 1 h at 4 °C. The pellet was resuspended in reaction buffer and the protein concentration determined using the Pierce Protein BCA kit as described above.
(§2) Microsomal protein (250 µg/mL) was preincubated with 1 mM NADPH and the compound of interest in reaction buffer for 10 min. The reaction was started by adding progesterone spiked with a radioactive tracer (final activity 0.025 mCi) to a final concentration of 500 nM. After 10 min of incubation at 37 °C the reaction was stopped by adding enzyme substrate and product at a final concentration of 1 mM in methanol, followed by shock-freezing in liquid nitrogen. Steroids were separated by thin layer chromatography on SIL G-25 UV254 TLC plates (Macherey-Nagel, Düren, Germany) using chloroform and ethyl acetate (1:4; v:v). Bands were excised and radiolabeled steroids analyzed by scintillation counting using […] Plus cocktail (Zinsser Analytic, Frankfurt am Main, Germany) and a β-counter (Packard, Connecticut, USA). Relative conversion was calculated based on total counts.

CYP17A1 17α-hydroxylase = biological target: T2, CYP17A1 17α-hydroxylase (Homo sapiens, UniProt P05093); assay: CYP17A1 17α-hydroxylase activity assay, microsomes of transfected COS-1 cells; type: biochemical; conditions: cell-free; for inhibition of CYP17A1 17α-hydroxylase: in words; for IC50: progesterone 500 nM, 10 min, read-out: IC50 CYP17A1 17α-hydroxylase mean
T2 construct: expressed in transfected cells; host or cells: COS-1 cells, transient transfection, microsomal fraction
T2 sequence (P05093 1-508): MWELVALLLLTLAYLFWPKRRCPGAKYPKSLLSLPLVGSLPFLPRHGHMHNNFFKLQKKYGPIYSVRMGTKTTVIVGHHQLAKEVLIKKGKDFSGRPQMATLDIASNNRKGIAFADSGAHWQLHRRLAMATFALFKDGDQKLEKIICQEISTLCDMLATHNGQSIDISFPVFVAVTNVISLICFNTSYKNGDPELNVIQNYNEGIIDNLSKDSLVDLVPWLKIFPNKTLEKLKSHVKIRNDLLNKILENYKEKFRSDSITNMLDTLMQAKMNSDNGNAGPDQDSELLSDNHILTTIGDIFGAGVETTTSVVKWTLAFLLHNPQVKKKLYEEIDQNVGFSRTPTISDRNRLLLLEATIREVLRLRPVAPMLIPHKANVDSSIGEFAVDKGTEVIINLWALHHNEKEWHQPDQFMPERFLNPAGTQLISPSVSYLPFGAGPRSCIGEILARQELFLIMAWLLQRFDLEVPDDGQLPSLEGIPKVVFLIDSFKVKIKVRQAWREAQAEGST
Procedure: as §1, §2

H295R cells = assay: Steroidogenesis assay in forskolin-stimulated H295R cells, UHPLC-MS/MS; type: cell-based, human; conditions: 48 h
Procedure: Briefly, 200,000 cells/mL between passages 5 and 10 were seeded in a 24-well plate. After 24 h, the medium was replaced by fresh medium containing reference or test compounds. […] As a time zero control, complete medium was incubated without cells. After 48 h of incubation, the cell culture supernatant was collected and stored at −20 °C until steroid quantification was performed by ultra-high liquid chromatography tandem mass spectrometry (UHPLC-MS/MS). All experiments were performed three times independently in technical duplicates.
Using water, the sample volume was adapted to 1 mL. Samples were extracted using Oasis HLB 3 cc SPE cartridge (30 mg, 30 μm particle size, Waters, Massachusetts, USA). Columns were preconditioned with 1 mL ethyl acetate and water prior to application of samples. After sample loading, columns were washed three times with 1 mL methanol (10% v/v) and water before samples were eluted applying 0.75 mL ethyl acetate twice. Eluates were evaporated to dryness and reconstituted in 50 µL methanol. Samples were applied to a reverse phase column (Waters Acquity UPLC BEH C18, 1.7 μm, 2.1 mm × 150 mm). […] Applied mobile phases consisted of water, acetonitrile and formic acid (95/5/0.1; v/v/v and 5/95/0.1; v/v/v). For data analysis, Hunter software version B.09.00 (Agilent Technologies) was used. Lower limit of detection (LOD), lower limit of quantification (LLOQ), and upper limit of quantification (ULOQ) are shown in Table 1.

[1] = 30 nM, 10 μM forskolin, relative to forskolin control

| inhibition of CYP21A2 (CYP21A2; in words) | IC50 (CYP21A2) | inhibition of CYP17A1 17α-hydroxylase (CYP17A1 17α-hydroxylase) | IC50 (CYP17A1 17α-hydroxylase) | SMILES | IC50 (CYP11B1) | IC50 (11β-HSD2) | concentrations that block overall steroidogenesis (H295R cells; forskolin-stimulated) | effect on the steroid profile (H295R cells; forskolin-stimulated, in words) | product/substrate ratios corticosterone/11-DOC and cortisol/cortexolone (apparent CYP11B1 activity) (H295R cells; forskolin-stimulated, in words) | effect on the steroid profile (H295R cells; forskolin-stimulated, in words, listed as Itraconazole) | lower level of the CYP11B2 product aldosterone (H295R cells; [1]) | lower levels of the CYP11B1 products cortisol and corticosterone (H295R cells; [1]) | inhibition of cortisol, corticosterone and aldosterone production (H295R cells; 300 nM and higher concentrations) | product/substrate ratio 17α-hydroxyprogesterone/progesterone (apparent CYP17A1 17α-hydroxylase activity) (H295R cells; forskolin-stimulated, in words) |
| --- | --- | --- | --- | --- | --- | --- | --- | --- | --- | --- | --- | --- | --- | --- |
| weak inhibition | 8100 nM and 8140 nM | very weakly | > 10000 nM | C[C@@H](c1nc(-c2ccc(C#N)cc2)cs1)[C@](O)(Cn1cncn1)c1cc(F)ccc1F [isavuconazole] | 3000 nM | ~10000 nM | ≥ 1 µM | concentration-dependent decrease in all measured steroids | did not indicate an inhibition of CYP11B1 and CYP11B2 |  |  |  |  |  |
|  | > 10000 nM | moderately inhibited | 1120 nM | CC[C@@H]([C@H](C)O)n1ncn(-c2ccc(N3CCN(c4ccc(OC[C@@H]5CO[C@@](Cn6cncn6)(c6ccc(F)cc6F)C5)cc4)CC3)cc2)c1=O [posaconazole, Posaconazole] | 60 nM | 460 nM |  | did not affect progesterone and 11-DOC levels | decreased with increasing concentrations |  | ~50% | about 40% | complete inhibition | indicated 17α-hydroxylase inhibition |

| SMILES | inhibition of CYP21A2 (CYP21A2; in words) | IC50 (CYP21A2) | inhibition of CYP17A1 17α-hydroxylase (CYP17A1 17α-hydroxylase) | IC50 (CYP17A1 17α-hydroxylase) | IC50 (CYP11B1) | IC50 (11β-HSD2) | concentrations that block overall steroidogenesis (H295R cells; forskolin-stimulated) | effect on the steroid profile (H295R cells; forskolin-stimulated, in words) | product/substrate ratios corticosterone/11-DOC and cortisol/cortexolone (apparent CYP11B1 activity) (H295R cells; forskolin-stimulated, in words) | effect on the steroid profile (H295R cells; forskolin-stimulated, in words, listed as Itraconazole) | lower level of the CYP11B2 product aldosterone (H295R cells; [1]) | lower levels of the CYP11B1 products cortisol and corticosterone (H295R cells; [1]) | inhibition of cortisol, corticosterone and aldosterone production (H295R cells; 300 nM and higher concentrations) | product/substrate ratio 17α-hydroxyprogesterone/progesterone (apparent CYP17A1 17α-hydroxylase activity) (H295R cells; forskolin-stimulated, in words) |
| --- | --- | --- | --- | --- | --- | --- | --- | --- | --- | --- | --- | --- | --- | --- |
| CCC(C)n1ncn(-c2ccc(N3CCN(c4ccc(OCC5COC(Cn6cncn6)(c6ccc(Cl)cc6Cl)O5)cc4)CC3)cc2)c1=O (stereo not shown) [itraconazole] |  | > 10000 nM |  | > 10000 nM | 440 nM | 140 nM | ≥ 1 µM | lowered the levels of all steroids in a concentration-dependent manner | less potently | inhibited the production of corticosterone and aldosterone and, to a lesser extent, of cortisol in a concentration-dependent manner |  |  |  |  |
